From EPA's ToxValDB 9.5 (doi:10.2903/j.efsa.2016.4584)

How the values were obtained:
Apis mellifera = details: acute, mortality
Oncorhynchus mykiss = details: acute; duration: 96 hours; mortality
Folsomia candida = details: chronic/long-term; duration: 28 days; mortality
Anas platyrhynchos = details: acute; oral; unspecified; mortality
Canidae = details: subchronic; duration: 90 days; oral; Dog Other
Mus musculus = details: chronic; duration: 18 months; body weight
Landoltia sp. = details: chronic/long-term; duration: 8 weeks; frond number
Tagia sp. = details: chronic/long-term; duration: 56 days; growth

Compound: COC(=O)c1ccc(CNS(C)(=O)=O)cc1S(=O)(=O)NC(=O)Nc1nc(OC)cc(OC)n1 [Mesosulfuron-methyl]
- LD50 (Apis mellifera; dermal): > 100 µg/piece
- LD50 (Apis mellifera; oral, unspecified): > 106 µg/piece
- LD50 (Colinus virginianus; acute, oral, mortality): > 2000 mg/kg-day
- NOEL (Colinus virginianus; chronic): 93 mg/kg-day
- LC50 (Oncorhynchus mykiss): > 100 mg/L
- NOEC (Folsomia candida): 1000 mg/kg
- LD50 (Anas platyrhynchos): > 2000 mg/kg-day
- NOAEL (Canidae): 648 mg/kg-day
- NOAEL (Mus musculus): 103 mg/kg-day
- NOEC (Landoltia sp.): 0.000388 mg/L
- NOEC (Tagia sp.): 125 mg/kg
- LD50 (Rattus norvegicus; acute, oral, mortality): > 5000 mg/kg
- NOEL (Rattus norvegicus; reproduction developmental, no effects): 840 mg/kg-day
